Source: patent US12263139B2, “Use of cannabidiol in the treatment of tuberous sclerosis complex” (Jazz Pharmaceuticals Research UK Limited, priority 2017, dated 2025)

What was measured:
[1] = system: Miapaca; experiment: Drug combination assay (MTT, CalcuSyn) of Rad001 and CBD in Miapaca; assay type: cell-based, Homo sapiens
Experimental: For the study of the synergism between Rad001 and CBD on pancreatic cell lines Miapaca was tested, the cells were seeded in 96-multiwell plates at the density of 3.8 10^3 cells/well. After 24 hr incubation at 37° C., the cells were treated with different concentrations of Rad001 and CBD. Different molar ratios between two drugs in different sequences of administration were tested, (Rad001 for 48 h and CBD for 72 h or Rad001 for 72 h and CBD for 48 h and in co-administration for 72 h.
The proliferative response was estimated by colorimetric 3-(4,5 di-methylthiazol-2-yl)-2,5-diphenyltetrazolium bromide (MIT) test. MTT conversion to formazan by metabolically viable cells was monitored by spectrophotometer at an optical density of 570 nm. Each data point represents the average of three separate experiments with each experiment containing four wells. Drug combination studies were based on concentration-effect curves generated as a plot of the fraction of unaffected (surviving) cells versus drug concentration after treatment.
To explore the relative contribution of each agent to the synergism equi-active doses of […] were tested (IC50). Assessment of synergy was performed quantitating drug interaction by Calcusyn computer program (Biosoft, Ferguson, MO). Combination index (CI) values of <1, 1, and >1 indicate synergy, additivity and antagonism, respectively.
Dose reduction index (DRI) representing the measure of how much the dose of each drug in a combination may be reduced at a given effect level compared with the doses of each drug alone.
The effects of the pharmacological combination between CBD and RAD001 on the proliferation MIAPACA cell lines, using MTT assay were studied. The data obtained were processed with dedicated program, CalcuSyn (Chou and Talalay, Biosoft, Oregon, USA), which measures synergism.
The specific contribution of CBD and Rad001 on the cytotoxic effect of the combination of drugs was analyzed by calculating the potentiation factor (PF) defined as the ratio of the IC50 of either CBD or Rad001 alone to the IC50 of CBD and Rad001 in combination. A higher PF indicates a greater cytotoxicity.

[2] = stomatitis, infections, rash, fatigue, diarrhoea, oedema, abdominal pain, nausea, fever, asthenia, cough, headache, decreased appetite; cited from earlier work

For `CO[C@H]1C[C@@H]2CC[C@@H](C)[C@@](O)(O2)C(=O)C(=O)N2CCCC[C@H]2C(=O)O[C@H]([C@H](C)C[C@@H]2CC[C@@H](OCCO)[C@H](OC)C2)CC(=O)[C@H](C)/C=C(\C)[C@@H](O)[C@@H](OC)C(=O)[C@H](C)C[C@H](C)/C=C/C=C/C=C/1C` [Rad001, Everolimus, reference compound], the IC50 ([1]; Homo sapiens, MIA PaCa-2, Miapaca, 50% effect level, read-out: Dose of drug alone) was 2600 nM, the DRI50 ([1]; Miapaca, Rad/CBD combination, dose reduction index) was “Rad 2.1” and the “potentiation factor (PF)” value ([1]; ratio of IC50 alone to IC50 of CBD and Rad001 in combination) was 4. For the same molecule, the “incidence of most common adverse reactions” value [2] was no less than 30%.
